Measured values: patent US6472391B2, “Nitrogen-containing heterocyclic compounds” (Millennium Pharmaceuticals, Inc., priority 1996, dated 2002)
Read-outs that look alike come from different tables or passages of the source.

Tests used:
[1] = system: Vascular smooth muscle cells; test: Growth inhibition against smooth muscle cells (PDGF-BB stimulated, XTT method); type: cell-based; conditions: Sus scrofa, 72 h, pig aorta cells, PDGF-BB 20 ng/ml, 3 days, read-out: Growth Inhibitory effect against smooth muscle cells IC50
Description: Test Example 2 Growth Inhibition Against Smooth Muscle Cells
Vascular smooth muscle cells were isolated from a pig aorta by explantation and used for the test. The cells were put into wells of a 96-well plate (8000 cells/well) and cultured in Dulbecco's modified Eagle's medium (DMEM; Nissui Pharmaceutical Co., Ltd.) containing 10% fetal bovine serum (FBS; Hyclone) for 4 days. Then, the cells were further cultured in DMEM containing 0.1% FBS for 3 days, and were synchronized at the cell growth stationary phase.
To each well was added DMEM containing 0.1% FBS and a test sample at a varied concentration, and the cell growth was brought about by PDGF-BB (SIGMA, final concentration: 20 ng/ml). After culturing for 3 days, the cell growth was measured using the cell growth assay kit (Boehringer Mannheim) according to the XTT method [J. Immunol. Methods, 142, 257-265 (1991)], and the cell growth score was calculated by the following equation.
P100: Absorbance by XTT reagent when stimulated by PDGF-BB
P0: Absorbance by XTT reagent when not stimulated by PDGF-BB
M: Absorbance by XTT reagent after addition of a sample when stimulated by PDGF-BB

[2] = molecular target: T1, human β-PDGF receptor (Homo sapiens, UniProt P09619); test: Inhibitory effect on phosphorylation of PDGF receptor; type: cell-based; conditions: CHO cells expressing human β-PDGF receptor
T1 construct: expressed in transfected cells; host or cells: Chinese hamster ovary cells (CHO)
T1 sequence (P09619 33-1106): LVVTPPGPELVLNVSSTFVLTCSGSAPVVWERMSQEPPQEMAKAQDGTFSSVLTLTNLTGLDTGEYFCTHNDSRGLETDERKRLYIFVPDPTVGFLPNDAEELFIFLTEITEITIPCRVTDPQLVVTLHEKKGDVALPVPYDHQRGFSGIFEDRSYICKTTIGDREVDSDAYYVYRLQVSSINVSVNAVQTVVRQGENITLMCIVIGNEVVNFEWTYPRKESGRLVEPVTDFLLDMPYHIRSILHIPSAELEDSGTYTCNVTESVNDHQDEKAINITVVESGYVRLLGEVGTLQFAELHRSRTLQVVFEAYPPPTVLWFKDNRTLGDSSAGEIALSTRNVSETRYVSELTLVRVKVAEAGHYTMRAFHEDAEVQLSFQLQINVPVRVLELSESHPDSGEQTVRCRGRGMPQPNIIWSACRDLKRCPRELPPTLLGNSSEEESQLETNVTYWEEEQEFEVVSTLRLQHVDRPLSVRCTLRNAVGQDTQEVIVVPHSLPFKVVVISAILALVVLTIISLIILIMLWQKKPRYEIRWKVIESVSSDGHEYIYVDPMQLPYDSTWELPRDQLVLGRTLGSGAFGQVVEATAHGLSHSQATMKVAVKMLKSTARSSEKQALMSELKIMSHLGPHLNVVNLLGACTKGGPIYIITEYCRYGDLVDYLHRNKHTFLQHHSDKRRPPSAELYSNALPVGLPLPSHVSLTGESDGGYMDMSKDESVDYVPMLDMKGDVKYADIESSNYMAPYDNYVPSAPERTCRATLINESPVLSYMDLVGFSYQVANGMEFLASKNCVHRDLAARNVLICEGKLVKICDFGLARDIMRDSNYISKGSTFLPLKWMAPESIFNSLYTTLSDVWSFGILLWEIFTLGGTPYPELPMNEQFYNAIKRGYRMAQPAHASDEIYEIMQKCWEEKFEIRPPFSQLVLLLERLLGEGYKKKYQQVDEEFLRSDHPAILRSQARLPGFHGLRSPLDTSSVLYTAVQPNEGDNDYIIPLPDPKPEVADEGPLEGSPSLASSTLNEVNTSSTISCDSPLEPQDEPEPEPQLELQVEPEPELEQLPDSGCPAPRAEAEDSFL
Procedure: Test Example 1 Inhibitory Effect on Phosphorylation of PDGF Receptor
The test was carried out according to the method described in the literature [Dah-Shuhn et al., J. Biol. Chem., 266, 413-418 (1991)], using Chinese hamster ovary cells (CHO) wherein human β-PDGF receptor cDNA was introduced and expressed.

[3] = system: Lewis rats; test: Rat adjuvant arthritis model; type: in vivo; conditions: 3 mg/ml suspension, 1 ml/100 g orally once a day; for inhibition at 3000 µg/mL (stock): Rattus norvegicus, po, 120 h
Procedure: Test Example 4 Evaluation by the use of a Rat Adjuvant Arthritis Model
Killed cells of Mycobacterium butyricum (Difco Laboratories Inc.) were disrupted in agate mortar and suspended in liquid paraffin to the final concentration of 6.6 mg/ml, followed by sterilization with high pressure steam. Then, 100 μl of the suspension was intradermaly injected into the right hind foot pad of each animal of groups of female 8-weeks-old Lewis rats (Charles River Japan) (6 animals/group) to induce adjuvant arthritis. A test compound was suspended in a 0.5% solution of methylcellulose to the final concentration of 3 mg/ml, and from just before the induction of arthritis, the suspension was orally administered in an amount of 1 ml/100 g of the body weight once a day, 5 days a week. To a control group was administered a 0.5% solution of methylcellulose. A normal group was given no adjuvant treatment or test compound administration. The administration of the test compound was continued till the 18th day after the adjuvant treatment. On the 17th day, the number of leukocytes in peripheral blood was counted, and on the 18th day, all the blood was collected, followed by dissection. The change in body weight with the passage of time, the change of edema in hind paw with the passage of time, the weight of spleen and thymus, the number of leukocytes in peripheral blood, the hydroxyproline content of urine, the glucosaminoglycan content of urine, the SH concentration in serum, the concentration of nitrogen monoxide in serum and the concentration of mucoprotein in serum were measured and evaluated. The volume of both hind paws was measured using a rat's hind foot edema measurement device (TK-101, Unicom). The number of leukocytes in peripheral blood was counted using an automatic multichannel blood cell counter (Sysmex K-2000, Toa Iyo Denshi Co., Ltd.). The hydroxyproline content of urine was measured according to the method described in Ikeda, et al., Annual Report of Tokyo Metropolitan Research Laboratories P. H., 36, 277 (1985), and the glucosaminoglycan content was measured according to the method described in Moriyama, et al., Hinyo Kiyo, 40, 565 (1994) and Klompmakers, et al., Analytical Biochemistry, 153, 80 (1986). […] The concentration of mucoprotein was measured using Aspro GP Kit (Otsuka Pharmaceutical Co., Ltd.). The percentage of inhibition for each indication was calculated according to the following equation.
% Inhibition={(Control group−Compound-administered group)/(Control group−Normal group)}×100

COc1cc2ncnc(N3CCN(C(=O)Nc4ccc(C(C)C)cc4)CC3)c2cc1OC [Compound 19, 4-(6,7-Dimethoxy-4-quinazolinyl)-N-(4-isopropylphenyl)-1-piperazinecarboxamide]
melting point: 252 to 254 °C
IC50 [1]: 180 nM

COc1cc2ncnc(N3CCN(C(=O)Nc4ccc(Oc5ccccc5)cc4)CC3)c2cc1OC [Compound 60, 4-(6,7-Dimethoxy-4-quinazolinyl)-N-(4-phenoxyphenyl)-1-piperazinecarboxamide]
IC50 [1]: 30 nM

COc1cc2ncnc(N3CCN(C(=S)NCCCc4ccccc4)CC3)c2cc1OC [Compound 135, 4-(6,7-Dimethoxy-4-quinazolinyl)-N-(3-phenylpropyl)-1-piperazinethiocarboxamide]
IC50 [2]: 460 nM
melting point: 147 to 148 °C

COc1cc2ncnc(N3CCN(C(=S)NCc4cccc(Cl)c4)CC3)c2cc1OC [Compound 177, N-(3-Chlorobenzyl)-4-(6,7-dimethoxy-4-quinazolinyl)-1-piperazinethiocarboxamide]
IC50 [2]: 770 nM
melting point: 117 to 119 °C

COc1cc2ncnc(N3CCN(C(=O)NCc4ccc(Cl)cc4)CC3)c2cc1OC [Compound 178, N-(4-Chlorobenzyl)-4-(6,7-dimethoxy-4-quinazolinyl)-1-piperazinecarboxamide]
IC50 [2]: 410 nM
melting point: 203 to 204 °C

COc1cc2ncnc(N3CCN(C(=S)NCCc4ccc(Cl)cc4)CC3)c2cc1OC [Compound 180, N-[2-(4-Chlorophenyl)ethyl]-4-(6,7-dimethoxy-4-quinazolinyl)-1-piperazinethiocarboxamide]
IC50 [2]: 1000 nM
melting point: 106 to 109 °C

COc1cc2ncnc(N3CCN(C(=O)NCc4ccc(OC(F)(F)F)cc4)CC3)c2cc1OC [Compound 203, 4-(6,7-Dimethoxy-4-quinazolinyl)-N-(4-trifluoromethoxybenzyl)-1-piperazinecarboxamide]
IC50 [2]: 1390 nM
melting point: 176 to 177 °C

COc1cc2ncnc(N3CCN(C(=S)Nc4ccc(CNC(=O)OC(C)(C)C)cc4)CC3)c2cc1OC [Compound 228, N-[4-(N-tert-Butoxycarbonylaminomethyl)phenyl]-4-(6,7-dimethoxy-4-quinazolinyl)-1-piperazinethiocarboxamide]
IC50 [2]: 290 nM
melting point: 123 to 126 °C

COc1cc2ncnc(N3CCN(C(=O)Nc4ccc(N=Nc5ccccc5)cc4)CC3)c2cc1OC [Compound 229, 4-(6,7-Dimethoxy-4-quinazolinyl)-N-(4-phenylazophenyl)-1-piperazinecarboxamide]
IC50 [2]: 310 nM
melting point: 244 to 246 °C

COc1cc2ncnc(N3CCN(C(=O)Nc4ccc(C#N)cc4)CC3)c2cc1OC [Compound 239, N-(4-Cyanophenyl)-4-(6,7-dimethoxy-4-quinazolinyl)-1-piperazinecarboxamide]
Volume of left hind foot ([3]; 5 days a week, normal 1.12 ± 0.03, sensitized control 1.84 ± 0.18): 1.52 ± 0.16 mL
Weight of spleen ([3]; normal 21.4 ± 0.3, sensitized control 53.8 ± 3.8, P < 0.05 vs control): 40.4 ± 2.5 mg/10 g of body weight
Body weight ([3]; normal 191 ± 5, sensitized control 146 ± 4, P < 0.05 vs control): 159 ± 2 g
inhibition at 3000 µg/mL (stock) ([3]; 5 days a week, read-out: Inhibition rate (NO concentration)): 42%
inhibition at 3000 µg/mL (stock) ([3]; 5 days a week, read-out: Inhibition rate (body weight)): 29%
inhibition at 3000 µg/mL (stock) ([3]; 5 days a week, read-out: Inhibition rate (volume of left hind foot)): 44%
inhibition at 3000 µg/mL (stock) ([3]; 5 days a week, read-out: Inhibition rate (weight of spleen)): 41%
NO concentration ([3]; serum, normal 11.1 ± 1.0, sensitized control 56.6 ± 7.0): 37.6 ± 4.0 µM
melting point: 274 to 275 °C

COc1cc2ncnc(N3CCN(C(=S)NCc4ccc(C#N)cc4)CC3)c2cc1OC [Compound 240, N-(4-Cyanobenzyl)-4-(6,7-dimethoxy-4-quinazolinyl)-1-piperazinethiocarboxamide]
IC50 [2]: 500 nM
melting point: 186 to 187 °C

COc1cc2ncnc(N3CCN(C(=S)Nc4cccc(C(C)=O)c4)CC3)c2cc1OC [Compound 241, N-(3-Acetylphenyl)-4-(6,7-dimethoxy-4-quinazolinyl)-1-piperazinethiocarboxamide]
IC50 [2]: 400 nM
melting point: 192 to 193 °C

COc1cc2ncnc(N3CCN(C(=S)Nc4ccc(S(=O)(=O)N5CCCCC5)cc4)CC3)c2cc1OC [Compound 254, 4-(6,7-Dimethoxy-4-quinazolinyl)-N-(4-piperidinosulfonylphenyl)-1-piperazinethiocarboxamide]
IC50 [2]: 460 nM
melting point: 149 to 150 °C

COc1cc2ncnc(N3CCN(C(=O)Nc4ccoc4)CC3)c2cc1OC [Compound 255, 4-(6,7-Dimethoxy-4-quinazolinyl)-N-(3-furyl)-1-piperazinecarboxamide]
IC50 [2]: 660 nM
melting point: 213 to 215 °C

COc1cc2ncnc(N3CCN(C(=O)Nc4ccc(-n5cccc5)nc4)CC3)c2cc1OC [Compound 283, 4-(6,7-Dimethoxy-4-quinazolinyl)-N-[2-(1-pyrrolyl)-5-pyridyl]-1-piperazinecarboxamide]
IC50 [2]: 1400 nM
melting point: 252 to 254 °C

Cc1ccc2ncnc(N3CCN(C(=O)Nc4ccc(Oc5ccccc5)cc4)CC3)c2c1 [Compound 292, 4-(6-Methyl-4-quinazolinyl)-N-(4-phenoxyphenyl)-1-piperazinecarboxamide]
IC50 [2]: 760 nM
melting point: 244 to 246 °C

O=C(Nc1ccc(Oc2ccccc2)cc1)N1CCN(c2ncnc3ccc(F)cc23)CC1 [Compound 297, 4-(6-Fluoro-4-quinazolinyl)-N-(4-phenoxyphenyl)-1-piperazinecarboxamide]
IC50 [2]: 330 nM
melting point: 186 to 187 °C

Cc1ccc2c(N3CCN(C(=O)Nc4ccc(Oc5ccccc5)cc4)CC3)ncnc2c1 [Compound 312, 4-(7-Methyl-4-quinazolinyl)-N-(4-phenoxyphenyl)-1-piperazinecarboxamide]
IC50 [2]: 260 nM
melting point: 184 to 185 °C

O=C(Nc1ccc(Oc2ccccc2)cc1)N1CCN(c2ncnc3cc(Cl)c([N+](=O)[O-])cc23)CC1 [Compound 357, 4-(7-Chloro-6-nitro-4-quinazolinyl)-N-(4-phenoxyphenyl)-1-piperazinecarboxamide]
IC50 [2]: 190 nM
melting point: 190 to 191 °C

S=C(NCc1cccnc1)N1CCN(c2ncnc3cc4ccccc4cc23)CC1 [Compound 366, 4-(4-Benzo[g]quinazolinyl)-N-(3-picolyl)-1-piperazinethiocarboxamide]
IC50 [2]: 1470 nM
melting point: 107 to 110 °C

COc1cc2ncnc(N3C[C@@H](C)N(C(=S)NCc4ccccc4)[C@@H](C)C3)c2cc1OC [Compound 433, N-Benzyl-4-(6,7-dimethoxy-4-quinazolinyl)-(cis-2,6-dimethyl)-1-piperazinethiocarboxamide]
IC50 [2]: 380 nM
melting point: 165 to 166 °C
